Assay type in all cases: in vivo
Data set [1] concerns maize (Marista 11f). Briefly: Post-emergent test on maize (safener action). Particulars: post-emergent (GS 11), evaluated after 28 days. Here is the method:
The test plants are sown in containers under glasshouse conditions. A standard earth is used as the culture substrate. In a maize growth stage of one leaf (GS 11), the herbicides are applied both by themselves and in a mixture with safeners to the soil and leaf surface. The application is carried out with an aqueous suspension of the test substances, prepared from a 25% wettable powder (Example F3,b) or a suspension concentrate (Example F8), to achieve a field equivalent of 200 l/ha. The tests are evaluated after 28 days (100%=plants completely dead; 0%=no phytotoxic action on the plants).

In data set [2] the test system is wheat. In words: Pre-emergent test on wheat (safener action). Conditions: after 14 days, average value of two repetitions. Here is the method: The test plants are sown in 48 well plates in a growth chamber. A sterilized standard earth is used as the culture substrate. In a pre-emergent stage, the herbicides are applied both by themselves and in a mixture with safeners to the soil surface. The application is carried out with an aqueous suspension of the test substances, prepared from a 25% wettable powder (Example F3,b), to achieve a field equivalent of 375 l/ha. The tests are evaluated after 14 days (100%=plants completely dead; 0%=no phytotoxic action on the plants).

Data set [3] has as its system maize. Briefly: Pre-emergent test on maize (safener action). Particulars: evaluated after 14 days. Here is the method:
The test plants are sown in seed troughs under greenhouse conditions. A standard earth is used as the culture substrate. In a pre-emergent stage, the herbicides are applied both by themselves and in a mixture with safeners to the soil surface. […] The tests are evaluated after 14 days (100%=plants completely dead; 0%=no phytotoxic action on the plants).

In the case of `Cn1nc(C(F)(F)F)c(CS(=O)(=O)C2=NOC(C)(C)C2)c1OC(F)F` [Comp. 1.27, 3-(5-difluoromethoxy-1-methyl-3-trifluoromethyl-1H-pyrazol-4-ylmethylsulfonyl)-5,5-dimethyl-4,5-dihydroisoxazole], the “phytotoxic action on the plants (100%=plants completely dead; 0%=no phytotoxic action)” value was determined as 0% in data set [1] (herbicide alone 37.5 g/ha); 10% in data set [1] (herbicide alone 75 g/ha); 40% in data set [1] (herbicide alone 150 g/ha); 25% in data set [2] (herbicide alone 100 g/ha); 50% in data set [2] (herbicide alone 200 g/ha).

Regarding `CC1(C)CC(S(=O)(=O)Cc2c(F)cccc2F)=NO1` [Comp. 1.41], the “phytotoxic action on the plants (100%=plants completely dead; 0%=no phytotoxic action)” value is given as 30% in data set [3] (herbicide alone 250 g/ha), 70% in data set [3] (herbicide alone 500 g/ha) and 80% in data set [3] (herbicide alone 1000 g/ha).

For `Cn1nc(C(F)(F)F)c(C[S+]([O-])C2=NOC(C)(C)C2)c1OC(F)F` (stereo not drawn) [Comp. 1.57], the “phytotoxic action on the plants (100%=plants completely dead; 0%=no phytotoxic action)” value in data set [2] (herbicide alone 100 g/ha) was 90%.
